Experimental findings from patent US20040248919A1, “Fluorinated trienes and their use as rxr modulators” (priority 2001, published 2004) are described below.

One assay has as its target T1, RXRγ (UniProt P28705).
T1 sequence (P28705 1-463): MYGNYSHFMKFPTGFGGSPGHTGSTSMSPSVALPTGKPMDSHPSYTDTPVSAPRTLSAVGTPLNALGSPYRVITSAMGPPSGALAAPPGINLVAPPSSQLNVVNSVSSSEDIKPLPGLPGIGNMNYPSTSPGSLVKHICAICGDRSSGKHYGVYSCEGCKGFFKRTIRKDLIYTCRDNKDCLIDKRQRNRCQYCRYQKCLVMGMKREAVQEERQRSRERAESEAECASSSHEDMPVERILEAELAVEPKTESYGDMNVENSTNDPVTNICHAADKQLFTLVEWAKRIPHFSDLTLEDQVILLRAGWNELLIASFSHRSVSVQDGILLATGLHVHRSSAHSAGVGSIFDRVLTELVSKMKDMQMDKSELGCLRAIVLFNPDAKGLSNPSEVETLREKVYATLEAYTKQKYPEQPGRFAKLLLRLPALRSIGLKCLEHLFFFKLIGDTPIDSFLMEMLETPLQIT
The assay is described as follows: RXR binding, competition with tritiated retinoid. To be noted: read-out: RXR Binding gamma. From the text: (§1) In addition to the cotransfection data, the binding of selected compounds of the present invention to the RAR and RXR receptors was also investigated according to the methodology described in M. F., Boehm, et al., “Synthesis and Structure-Activity Relation-ships of Novel Retinoid X Receptor Selective Retinoids”, 37 J. Med. Chem., 2930 (1994); M. F. Boehm, et al., “Synthesis of High Specific Activity [^3H]-9-cis Retinoic Acid and Its Application for Identifying Retinoids with Unusual Binding Properties”, 37 J. Med. Chem., 408 (1994), and E. A. Allegretto, et al., “Characterization and Comparison of Hormone-Binding and Transactivation Properties of Retinoic Acid and Retinoid X Receptors Expressed in Mammalian Cells and Yeast”, 268 J. Biol. Chem., 22625 (1993), the disclosures of which are herein incorporated by reference.
(§2) Non-specific binding was defined as that binding remaining in the presence of 500 nM of the appropriate unlabelled compound. At the end of the incubation period, bound ligand was separated from free. The amount of bound tritiated retinoid was determined by liquid scintillation counting of an aliquot (700 μL) of the supernatant fluid or the hydroxylapatite pellet.
(§3) After correcting for non-specific binding, IC50 values were determined. The IC50 value is defined as the concentration of competing ligand needed to reduce specific binding by 50%. The IC50 value was determined graphically from a log-logit plot of the data. The Ki values were determined by application of the Cheng-Prussof equation to the IC50 values, the labeled ligand concentration and the Kd of the labeled ligand.

The next assay has as its target T2, RXRβ (UniProt P28704).
T2 sequence (P28704 1-520): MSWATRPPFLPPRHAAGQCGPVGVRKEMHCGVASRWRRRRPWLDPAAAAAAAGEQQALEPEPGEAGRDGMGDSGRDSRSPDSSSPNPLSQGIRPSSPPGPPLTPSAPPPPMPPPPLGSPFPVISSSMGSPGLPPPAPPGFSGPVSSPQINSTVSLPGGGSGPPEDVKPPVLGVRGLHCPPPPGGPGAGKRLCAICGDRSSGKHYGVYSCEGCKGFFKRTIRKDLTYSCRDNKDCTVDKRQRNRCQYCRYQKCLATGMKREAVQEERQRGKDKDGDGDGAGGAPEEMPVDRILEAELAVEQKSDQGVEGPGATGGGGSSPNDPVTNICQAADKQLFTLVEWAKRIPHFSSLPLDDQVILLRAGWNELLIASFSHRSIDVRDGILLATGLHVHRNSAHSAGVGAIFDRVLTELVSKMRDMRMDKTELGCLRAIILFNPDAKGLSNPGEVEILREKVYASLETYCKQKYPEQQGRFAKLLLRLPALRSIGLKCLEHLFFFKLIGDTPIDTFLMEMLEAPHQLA
The assay is described as follows: RXR binding, competition with tritiated retinoid. The conditions noted are these: read-out: RXR Binding beta.
Text: as §1, §2, §3

Consider `C/C(=C/C=C(F)/C(C)=C/C(=O)O)c1cc(C(C)(C)C)cc(C(C)(C)C)c1OCC(F)F` [Example 1, 7-[3,5-di-tert-butyl-2-(2,2-difluoroethoxy)-phenyl]4-fluoro-3-methyl-octa-2,4,6-trienoic acid], for which the values for the Ki at RXRγ and at RXRβ were 0.021 µM and 0.012 µM, respectively.
On to `C/C(=C/C(F)=C/C(C)=C/C(=O)O)c1cc(C(C)(C)C)cc(C(C)(C)C)c1OCC(F)F` [Example 2, 7-[3,5-Di-tert-butyl-2-(2,2-difluoroethoxy)-phenyl]-5-fluoro-3-methyl-octa-2,4,6-trienoic acid], for which the Ki was 0.029 µM at RXRγ and 0.015 µM at RXRβ.
For the compound `CCCCOc1c(\C(C)=C/C=C/C(=C/C(=O)O)C(F)(F)F)cc(C(C)C)cc1C(C)C` [Example 3, (2Z,4E,6Z)-7-(2-Butoxy-3,5-diisopropylphenyl)-3-trifluoromethyl-octa-2,4,6-trienoic acid], the Ki on RXRγ was determined as 0.662 µM; on RXRβ, 0.203 µM.
On to `CCCCOc1c(\C(C)=C/C=C/C(=C\C(=O)O)C(F)(F)F)cc(C(C)C)cc1C(C)C` [Example 4, (2E,4E,6Z)-7-(2-Butoxy-3,5-diisopropylphenyl)-3-trifluoromethyl-octa-2,4,6-trienoic acid], for which the values for the Ki at RXRγ and at RXRβ were 0.865 µM and 1.08 µM, respectively.
The matching figures for `CCOc1c(\C(=C/C=C/C(C)=C/C(=O)O)C(F)(F)F)cc(C(C)(C)C)cc1C(C)(C)C` [Example 5, (2E,4E,6E)-3-methyl-7-(2-ethoxy-3,5-di-tert-butylphenyl)-8,8,8-trifluoroocta-2,4,6-trienoic acid]: 0.184 µM and 0.052 µM.
